Patent publication US12290513B2, “Therapeutic methods and compositions for treating movement disorders” (Vima Therapeutics, Inc., priority 2023, dated 2025)
Read-outs that look alike come from different tables or passages of the source.

Columns and labels:
[1] = in vitro; conditions: mouse, liver microsomes
[2] = Whole blood stability, dog
Description: Procedures for blood Stability. • A. 398 μL of blood from each species was added to an incubation plate, which was pre-warmed at 37C for 15 minutes. • B. After the pre-incubation, 2 μL of working solution (test compounds or control compounds) was spiked to 398 μL of blood to reach a final concentration of 1 μM for test compounds and 5 μM for control compounds. The final concentration of organic solvents is 0.5%. The assays were performed in duplicate. • C. The reaction samples were incubated at 37C. • D. Aliquots of 50 μL were taken from the reaction samples at 0, 15, 30, 60 and 120 minutes. The reaction was stopped by the addition of 50 μL ultrapure water and 400 μL cold acetonitrile. • E. All samples were vortexed for 10 minutes, followed by centrifugation at 3,220 g for 40 minutes to precipitate proteins. 100 μL of the supernatant was then transferred to a new plate. The supernatant was diluted with ultrapure water as needed for detection by LC-MS/MS. Sample Analysis
Samples were analyzed by LC-MS/MS to measure the concentration of the test compounds.
(§1) All calculations were carried out using Microsoft Excel and according to standard analysis methods that are known in the art.

[3] = tested on: haloperidol-induced catalepsy; experiment: Haloperidol-induced catalepsy (bar test); type: in vivo, Sprague Dawley rats; conditions: for time spent holding bar, haloperidol-induced catalepsy: rats, haloperidol 1 mg/kg sc, Rac-THP 10, 20, 30 mg/kg, R-THP or S-THP 5, 10, 15 mg/kg ip
Description: Animals: Adult male Sprague Dawley rats (230-235 g) from Envigo were used in this study. Upon receipt, rats were group housed in ventilated cages and acclimated for one week prior to testing.
The front paws of a rat were placed then on a horizontal metal bar raised 6″ above a Plexiglas platform. Each rat underwent 3 trials of 60 seconds each. The test ended when the animal's front paws return to the platform or after 60 seconds. Rats were tested at 30 and 60 minutes after treatment.
Data were analyzed by one-way analysis of variance (ANOVA) followed by Tukey's post-hoc comparisons, where appropriate. Data are represented as mean and standard error to the mean (SEM).

[4] = target: CYP2C9 (Homo sapiens, UniProt P11712); experiment: Incubation with recombinant CYP2C9; conditions: for t1/2: unit not given
Sequence of CYP2C9 (P11712 whole entry): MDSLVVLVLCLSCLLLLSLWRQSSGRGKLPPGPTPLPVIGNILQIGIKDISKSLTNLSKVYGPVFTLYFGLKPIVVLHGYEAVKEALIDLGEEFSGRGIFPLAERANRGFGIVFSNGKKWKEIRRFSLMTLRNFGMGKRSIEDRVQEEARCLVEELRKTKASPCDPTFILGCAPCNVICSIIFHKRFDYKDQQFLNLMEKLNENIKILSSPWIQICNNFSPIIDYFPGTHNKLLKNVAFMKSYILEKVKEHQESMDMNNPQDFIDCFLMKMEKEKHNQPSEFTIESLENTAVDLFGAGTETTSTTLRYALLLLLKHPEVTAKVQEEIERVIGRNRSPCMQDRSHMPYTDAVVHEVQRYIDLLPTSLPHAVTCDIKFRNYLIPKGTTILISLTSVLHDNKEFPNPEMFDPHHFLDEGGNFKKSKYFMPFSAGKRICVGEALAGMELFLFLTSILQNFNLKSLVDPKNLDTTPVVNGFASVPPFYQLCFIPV

[5] = target: CYP2D6 (Homo sapiens, UniProt P10635); experiment: Incubation with recombinant CYP2D6
Sequence of CYP2D6 (P10635 whole entry): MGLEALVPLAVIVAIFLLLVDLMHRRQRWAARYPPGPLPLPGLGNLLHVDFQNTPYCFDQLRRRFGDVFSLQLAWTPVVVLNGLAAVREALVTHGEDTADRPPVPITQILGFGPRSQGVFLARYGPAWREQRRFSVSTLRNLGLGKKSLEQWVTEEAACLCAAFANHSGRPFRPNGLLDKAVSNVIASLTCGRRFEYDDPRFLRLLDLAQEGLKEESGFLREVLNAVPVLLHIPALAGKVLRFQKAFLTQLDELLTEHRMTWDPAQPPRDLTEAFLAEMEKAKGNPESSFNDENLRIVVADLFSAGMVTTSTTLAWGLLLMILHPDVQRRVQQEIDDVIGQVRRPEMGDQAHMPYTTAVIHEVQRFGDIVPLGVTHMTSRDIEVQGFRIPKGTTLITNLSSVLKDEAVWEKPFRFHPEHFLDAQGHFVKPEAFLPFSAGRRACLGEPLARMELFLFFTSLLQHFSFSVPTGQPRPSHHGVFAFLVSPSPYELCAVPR

[6] = target: CYP3A5 (Homo sapiens, UniProt P20815); experiment: Incubation with recombinant CYP3A5
Sequence of CYP3A5 (P20815 whole entry): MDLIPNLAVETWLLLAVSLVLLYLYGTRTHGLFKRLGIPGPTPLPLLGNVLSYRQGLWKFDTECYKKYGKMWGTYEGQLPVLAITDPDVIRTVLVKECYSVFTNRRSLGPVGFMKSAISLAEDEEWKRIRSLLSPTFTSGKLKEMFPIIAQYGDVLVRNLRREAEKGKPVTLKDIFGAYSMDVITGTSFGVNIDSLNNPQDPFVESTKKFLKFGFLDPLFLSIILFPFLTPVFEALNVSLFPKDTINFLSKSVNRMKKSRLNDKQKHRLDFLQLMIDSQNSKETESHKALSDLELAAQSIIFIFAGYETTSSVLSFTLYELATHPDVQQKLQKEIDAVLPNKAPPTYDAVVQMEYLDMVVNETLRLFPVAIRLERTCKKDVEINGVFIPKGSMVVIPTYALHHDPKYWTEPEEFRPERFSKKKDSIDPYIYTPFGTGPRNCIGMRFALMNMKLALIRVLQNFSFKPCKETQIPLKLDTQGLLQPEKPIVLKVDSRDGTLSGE

[7] = target: kappa (h) (KOP) (agonist radioligand) (Homo sapiens, UniProt P41145); conditions: at the tested concentration, negative values set to zero
Sequence of kappa (h) (KOP) (agonist radioligand) (P41145 whole entry): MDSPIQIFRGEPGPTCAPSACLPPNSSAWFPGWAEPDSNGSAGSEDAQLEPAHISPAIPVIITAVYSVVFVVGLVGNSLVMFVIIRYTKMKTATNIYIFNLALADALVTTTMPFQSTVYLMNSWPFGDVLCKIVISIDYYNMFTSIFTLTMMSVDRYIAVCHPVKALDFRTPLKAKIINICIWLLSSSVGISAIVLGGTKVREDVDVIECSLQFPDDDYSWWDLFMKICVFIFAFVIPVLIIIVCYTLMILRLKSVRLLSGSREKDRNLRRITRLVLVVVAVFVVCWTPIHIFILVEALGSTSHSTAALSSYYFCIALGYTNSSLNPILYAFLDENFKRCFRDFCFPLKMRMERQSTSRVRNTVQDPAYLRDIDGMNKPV

[8] = Hepatocyte stability, human
Description: • 1. 10 mM stock solutions of test compounds and positive control compound were prepared in appropriate solvent (DMSO). • 2. In separate conical tubes, 10 mM test compound and positive controls were diluted to 100 μM by combining 198 μL of 50% acetonitrile/50% water and 2 μL of 10 mM stock. Preparation of Hepatocytes • 1. Incubation medium (William's E Medium supplemented with GlutaMAX) and hepatocyte thawing medium were placed in a 37C water bath and warmed for at least 15 minutes prior to use. • 2. A vial of cryopreserved hepatocytes was thawed by placing the vial in a 37C water bath and gently shaken for 2 minutes. After thawing was completed, the vial was cleaned with 70% ethanol and transferred to a biosafety cabinet. • 3. Using wide-bore pipette tips, hepatocytes were transferred into a 50 mL conical tube containing thawing medium. The 50 mL conical tube was placed into a centrifuge and spun at 100 g for 10 minutes. […] Using AO/PI Staining, cells were counted to determine the viable cell density. Cells were diluted with incubation medium to a working cell density of 0.5×10^6 viable cells/mL. Procedure for Stability Determination • 1. 198 μL of hepatocytes were pipetted into each well of a 96-well non-coated plate. The plate was placed in the incubator to allow the hepatocytes to warm for 10 minutes. • 2. 2 μL of the 100 μM test compound or positive control was pipetted into respective wells of the 96-well non-coated plate to start the reaction. The plate was returned to the incubator for the designed time points. • 3. The contents of the wells were removed in 25 μL aliquots at time points of 0.5, 15, 30, 60, 90 and 120 minutes. The aliquots were then mixed with 6 volumes (150 μL) of acetonitrile containing an internal standard, IS (100 nM alprazolam, 200 nM caffeine and 100 nM tolbutamide), to terminate the reaction. Samples were vortexed for 5 minutes and centrifuged for 45 minutes at 3,220 g. Aliquots of 100 μL of supernatant were diluted with 100 μL ultra-pure water, and the mixture was used for LC/MS/MS analysis. All incubations were performed in duplicate. Data Analysis
as §1

[9] = target: D2S (h) (agonist radioligand) (Homo sapiens, UniProt P14416); conditions: at the tested concentration; negative values set to zero
Sequence of D2S (h) (agonist radioligand) (P14416 1-414 isoform P14416-2): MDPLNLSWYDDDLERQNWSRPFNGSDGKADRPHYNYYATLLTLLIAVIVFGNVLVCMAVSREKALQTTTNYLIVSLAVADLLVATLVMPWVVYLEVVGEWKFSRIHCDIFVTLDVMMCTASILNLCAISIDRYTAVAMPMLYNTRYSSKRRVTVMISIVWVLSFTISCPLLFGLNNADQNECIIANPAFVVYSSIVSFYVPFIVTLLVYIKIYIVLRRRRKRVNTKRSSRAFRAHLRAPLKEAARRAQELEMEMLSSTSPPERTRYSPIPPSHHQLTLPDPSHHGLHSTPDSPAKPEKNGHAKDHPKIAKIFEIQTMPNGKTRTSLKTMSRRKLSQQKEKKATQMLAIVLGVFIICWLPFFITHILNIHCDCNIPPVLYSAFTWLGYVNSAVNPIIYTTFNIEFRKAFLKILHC

[10] = tested on: Cerep87 Safety Panel receptors; experiment: Cerep87 Safety Panel (Eurofins), whole panel statements; type: binding

SMILES: O[C@@](CCN1CCCCC1)(c1ccccc1)C1CCCCC1 [(R)-THP, (R)-trihexyphenidyl]
- CLint scaled [1]: 2030 mL/min/kg
- half-life at 1 μM [1]: 2.82 min
- microsomal CLint at 1 μM [1]: 492 µL/min/mg
- Remaining Percentages (%) 0 min ([2]; dog whole blood, 37C): 100.00%
- t1/2 ([2]; dog whole blood, 37C): ∞
- time spent holding bar, haloperidol-induced catalepsy ([3]; 30 minutes after injection): significantly attenuated haloperidol-induced catalepsy
- time spent holding bar, haloperidol-induced catalepsy ([3]; 60 minutes after injection): significantly attenuated haloperidol-induced catalepsy
- Efficacy of R-THP versus Rac-THP over a dosage range ([3]; catalepsy control, FIG. 6): half a dose of R-THP controls catalepsy at least as effectively as a full dose of Rac-THP
- CLint [4]: 0.00 µL/min/pmol
- t1/2 [4]: ∞
- Substrates of CYP2D6 [5]: Rac, R and S
- Substrates of CYP3A5 [6]: Rac, R and S
- signal, kappa (h) (KOP) (agonist radioligand) [7]: greater than 25%
- signal, kappa (h) (KOP) (agonist radioligand) ([7]; listed as R-THP): 26.19%
- CLint scaled at 1 μM ([8]; cryopreserved hepatocytes): 55.7 mL/min/kg
- half-life at 1 μM ([8]; cryopreserved hepatocytes): 63.3 min
- hepatocyte CLint at 1 μM ([8]; cryopreserved hepatocytes): 21.9 µL/min/1e6 cells
- signal, D2S (h) (agonist radioligand) [9]: 0.23%

SMILES: O[C@](CCN1CCCCC1)(c1ccccc1)C1CCCCC1 [(S)-THP, (S)-trihexyphenidyl]
- CLint scaled [1]: 1030 mL/min/kg
- half-life at 1 μM [1]: 5.56 min
- microsomal CLint at 1 μM [1]: 249 µL/min/mg
- time spent holding bar, haloperidol-induced catalepsy ([3]; 30 minutes after injection): did not significantly differ from those of haloperidol-treated rats
- time spent holding bar, haloperidol-induced catalepsy ([3]; 60 minutes after injection): no significant differences
- CLint [4]: 0.00 µL/min/pmol
- t1/2 [4]: ∞
- Substrates of CYP2D6 [5]: Rac, R and S
- Substrates of CYP3A5 [6]: Rac, R and S
- half-life ([6]; human): 48.7 min
- signal, kappa (h) (KOP) (agonist radioligand) [7]: 34.64%
- non-muscarinic receptors signaled through ([10]; greater than 25% signal): nine
- signal, D2S (h) (agonist radioligand) [9]: 35.79%

SMILES: C[C@@H](C[N+](C)(C)C)OC(N)=O.[Cl-] [(S)-BTC, (S)-bethanechol]
- Remaining Percentages (%) 0 min ([2]; dog whole blood, 37C): 100.00%
- t1/2 ([2]; dog, blood): ∞
- Predicted Hepatic CLH ([8]; hepatocytes): 0 mL/min/kg
- in vitro t1/2 ([8]; hepatocytes): ∞
- antagonism at muscarinic receptors of the panel ([10]; only muscarinic receptors): greater than 50%
